Counter-ions that a name gives are not always drawn.
Key:
D2R = biological target: T1, D2R (Homo sapiens, UniProt P14416); assay: cell-based; format: cell-based
T1 construct: expressed in transfected cells; host or cells: Hek293 (D2R cotransfected with GRK2, MeN and ArC)

[1] = test system: Hek293 cells without cotransfection of any receptor; assay: MeNArC and EeNArC negative controls, Hek293 without cotransfection of any receptor; format: cell-based, human; settings: 10 µM agonist
AT1R [2] = biological target: T2, AT1R (Homo sapiens, UniProt P30556); assay: EeNArC β-arrestin early endosome recruitment assay, unmodified AT1R, Hek293; format: cell-based; settings: 450 mM sucrose, Ang II, early endosomes
T2 construct: signal peptide (N); expressed in transfected cells; host or cells: Hek293
T2 sequence (P30556 1-359): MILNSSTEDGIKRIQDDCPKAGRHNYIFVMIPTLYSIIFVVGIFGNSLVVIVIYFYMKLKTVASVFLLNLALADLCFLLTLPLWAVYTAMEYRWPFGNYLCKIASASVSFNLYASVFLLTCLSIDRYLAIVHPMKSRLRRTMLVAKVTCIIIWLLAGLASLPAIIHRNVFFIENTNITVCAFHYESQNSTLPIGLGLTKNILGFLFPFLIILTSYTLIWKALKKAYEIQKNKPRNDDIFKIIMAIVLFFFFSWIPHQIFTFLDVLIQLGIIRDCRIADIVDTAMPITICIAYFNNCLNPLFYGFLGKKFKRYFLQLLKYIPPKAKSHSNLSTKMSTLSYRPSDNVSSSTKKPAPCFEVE

AT1R [3] = biological target: T2, AT1R; assay: MeNArC β-arrestin membrane recruitment assay, unmodified AT1R, Hek293; format: cell-based
FKBP / FRB = biological target: T3, FKBP / FRB (UniProt P42345+Q62658); assay: rapamycin-induced dimerization of FKBP and FRB fused to the N- and C-terminal NanoLuc fragments; format: cell-based; settings: 50 nM rapamycin; Hek293 cotransfected with both fragments
T3 construct: expressed in transfected cells; host or cells: Hek293

MOR = MOR (Homo sapiens, UniProt P35372); format: cell-based
MOR 11S/T-A = assay: MeNArC β-arrestin2 recruitment assay, MOR 11S/T-A mutant, Hek293; format: cell-based

T1 sequence (P14416 1-414 isoform P14416-2): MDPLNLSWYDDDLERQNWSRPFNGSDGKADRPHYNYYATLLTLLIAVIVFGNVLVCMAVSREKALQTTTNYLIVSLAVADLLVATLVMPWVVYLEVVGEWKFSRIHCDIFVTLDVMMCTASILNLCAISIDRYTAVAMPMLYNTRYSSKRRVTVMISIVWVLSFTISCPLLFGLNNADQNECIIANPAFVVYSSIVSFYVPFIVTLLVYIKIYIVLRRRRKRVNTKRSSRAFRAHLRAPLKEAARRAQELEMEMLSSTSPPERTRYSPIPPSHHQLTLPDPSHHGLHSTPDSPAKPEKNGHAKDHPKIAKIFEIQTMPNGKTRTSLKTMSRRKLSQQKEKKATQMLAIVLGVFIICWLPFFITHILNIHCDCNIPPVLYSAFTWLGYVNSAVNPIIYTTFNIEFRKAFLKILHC
MOR, sequence (P35372 whole entry): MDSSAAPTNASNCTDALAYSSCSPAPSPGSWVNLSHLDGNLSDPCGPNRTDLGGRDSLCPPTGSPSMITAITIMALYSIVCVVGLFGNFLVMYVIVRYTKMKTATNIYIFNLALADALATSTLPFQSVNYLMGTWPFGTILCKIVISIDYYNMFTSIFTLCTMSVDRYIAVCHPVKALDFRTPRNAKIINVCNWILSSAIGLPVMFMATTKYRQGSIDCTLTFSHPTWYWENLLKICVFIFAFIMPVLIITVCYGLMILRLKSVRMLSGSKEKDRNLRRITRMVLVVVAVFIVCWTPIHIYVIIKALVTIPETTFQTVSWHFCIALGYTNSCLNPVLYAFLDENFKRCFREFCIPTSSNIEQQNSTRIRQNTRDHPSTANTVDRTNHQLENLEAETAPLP
MOR, sequence (P32121 whole entry partner): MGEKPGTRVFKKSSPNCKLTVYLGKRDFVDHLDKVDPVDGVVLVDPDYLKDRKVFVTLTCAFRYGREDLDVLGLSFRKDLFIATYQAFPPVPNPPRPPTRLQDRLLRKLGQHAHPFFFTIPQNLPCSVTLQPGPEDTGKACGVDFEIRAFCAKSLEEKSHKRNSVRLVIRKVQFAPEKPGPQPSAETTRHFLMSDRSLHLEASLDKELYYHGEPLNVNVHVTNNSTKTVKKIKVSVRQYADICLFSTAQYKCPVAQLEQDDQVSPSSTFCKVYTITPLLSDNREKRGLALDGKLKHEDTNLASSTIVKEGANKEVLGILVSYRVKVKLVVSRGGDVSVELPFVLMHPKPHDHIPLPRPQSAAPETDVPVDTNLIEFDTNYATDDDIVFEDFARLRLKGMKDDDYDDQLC
T3 sequence (Q62658 3-108): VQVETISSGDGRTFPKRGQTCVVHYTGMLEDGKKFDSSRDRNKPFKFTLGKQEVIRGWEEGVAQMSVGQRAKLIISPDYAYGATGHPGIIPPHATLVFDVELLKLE
T3 sequence (P42345 2012-2144): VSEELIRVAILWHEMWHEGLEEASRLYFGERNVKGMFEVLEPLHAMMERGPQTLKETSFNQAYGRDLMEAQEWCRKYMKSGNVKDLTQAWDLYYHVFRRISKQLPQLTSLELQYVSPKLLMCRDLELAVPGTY

## CCN1CCCC1CNC(=O)c1cc(S(N)(=O)=O)ccc1OC (stereo not shown) [sulpiride]
D2R
  effect of antagonist on agonist-induced luminescence: strong decay in luminescence down to baseline

## CC[C@H](C)[C@H](NC(=O)[C@H](Cc1ccc(O)cc1)NC(=O)[C@@H](NC(=O)[C@H](CCCNC(=N)N)NC(=O)[C@@H](N)CC(=O)O)C(C)C)C(=O)N[C@@H](Cc1c[nH]cn1)C(=O)N1CCC[C@H]1C(=O)N[C@@H](Cc1ccccc1)C(=O)O [Ang II, Angiotensin II]
[1]
  response in MeNArC and EeNArC assays without receptor: no response was observed

## OC[C@H]1O[C@@](CO)(O[C@H]2O[C@H](CO)[C@@H](O)[C@H](O)[C@H]2O)[C@@H](O)[C@@H]1O [sucrose]
AT1R [2]
  effect of sucrose on agonist effect: dramatically blunted
AT1R [3]; 450 mM sucrose, Ang II response, plasma membrane
  effect of sucrose on agonist response: no effect on agonist response

## CCN(CC)C(=O)N[C@H]1C[C@@H]2c3cccc4[nH]cc(c34)C[C@H]2N(C)C1 [terguride, Terguride]
D2R
  EC50: 9.55 nM
  efficacy compared with dopamine: 24%

## CC(C)C[C@H]1C(=O)N2CCC[C@H]2[C@]2(O)O[C@](NC(=O)[C@@H]3C=C4c5cccc6[nH]c(Br)c(c56)C[C@H]4N(C)C3)(C(C)C)C(=O)N12 [bromocriptine]
D2R
  EC50: 66.1 nM
  efficacy compared with dopamine: 46%

## CO[C@H]1C[C@@H]2CC[C@@H](C)[C@@](O)(O2)C(=O)C(=O)N2CCCC[C@H]2C(=O)O[C@H]([C@H](C)C[C@@H]2CC[C@@H](O)[C@H](OC)C2)CC(=O)[C@H](C)/C=C(\C)[C@@H](O)[C@@H](OC)C(=O)[C@H](C)C[C@H](C)/C=C/C=C/C=C/1C [rapamycin]
FKBP / FRB
  increase of basal luminescence signal by addition of rapamycin: ~30 fold

## C[C@@H](NC(=O)[C@@H](N)Cc1ccc(O)cc1)C(=O)NCC(=O)N(C)[C@@H](Cc1ccccc1)C(=O)NCCO [DAMGO, [D-Ala^2, N-MePhe^4, Gly-ol]-enkephalin]
MOR
  EC80: 60 nM
[1]
  response in MeNArC and EeNArC assays without receptor: no response was observed
MOR 11S/T-A; MOR 11S/T-A, β-arrestin2
  pEC50 ± SD: 6.82 ± 0.19
MOR 11S/T-A; from fold changes
  efficacy for MOR 11S/T-A compared with WT MOR: 65%

## CCCc1nc(C(C)(C)O)c(C(=O)O)n1Cc1ccc(-c2ccccc2-c2nnn[nH]2)cc1 [olmesartan]
AT1R [3]; 0.1 μM Ang II pretreatment, absence or presence of sucrose
  reversal of agonist-induced β-arrestin recruitment by antagonist added after agonist: could not be reversed

## CCCN1CCCC(c2cccc(O)c2)C1 (stereo not shown) [PPP, (3-hydroxyphenyl)-N-propylpiperidine]
D2R
  efficacy compared with dopamine: 10%

## NCCc1ccc(O)c(O)c1 [dopamine, Dopamine hydrochloride]
[1]
  response in MeNArC and EeNArC assays without receptor: no response was observed
